What all share (assay type): functional
The target of assay [1] is D(3) dopamine receptor (Homo sapiens) (UniProt P35462). Kind of assay: Partial agonist activity at D3 receptor.
Assay [2] has as its target D(2) dopamine receptor (Homo sapiens) (UniProt P14416). Briefly: Partial agonist activity at D2 receptor relative to control.
For assay [3], the target named is D(3) dopamine receptor (Homo sapiens) (UniProt P35462). Kind of assay: Partial agonist activity at D3 receptor relative to control.
For assay [4], the target named is D(2) dopamine receptor (Homo sapiens) (UniProt P14416). Kind of assay: Partial agonist activity at D2 receptor.

The structures appear in SMILES notation. Active and inactive are the calls of the source. No cut-off for these calls is given here.

D(3) dopamine receptor (Homo sapiens), sequence (P35462 whole entry): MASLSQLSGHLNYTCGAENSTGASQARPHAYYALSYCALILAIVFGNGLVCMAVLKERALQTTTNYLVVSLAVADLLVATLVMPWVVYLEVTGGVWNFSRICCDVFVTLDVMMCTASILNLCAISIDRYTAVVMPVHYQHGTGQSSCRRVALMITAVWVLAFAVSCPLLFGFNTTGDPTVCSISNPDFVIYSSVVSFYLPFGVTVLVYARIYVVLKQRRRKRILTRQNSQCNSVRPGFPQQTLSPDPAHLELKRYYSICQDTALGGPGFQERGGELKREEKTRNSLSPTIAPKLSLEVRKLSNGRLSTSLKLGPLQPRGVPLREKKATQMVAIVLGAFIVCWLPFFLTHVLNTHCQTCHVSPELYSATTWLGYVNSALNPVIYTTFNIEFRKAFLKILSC
D(2) dopamine receptor (Homo sapiens), sequence (P14416 whole entry): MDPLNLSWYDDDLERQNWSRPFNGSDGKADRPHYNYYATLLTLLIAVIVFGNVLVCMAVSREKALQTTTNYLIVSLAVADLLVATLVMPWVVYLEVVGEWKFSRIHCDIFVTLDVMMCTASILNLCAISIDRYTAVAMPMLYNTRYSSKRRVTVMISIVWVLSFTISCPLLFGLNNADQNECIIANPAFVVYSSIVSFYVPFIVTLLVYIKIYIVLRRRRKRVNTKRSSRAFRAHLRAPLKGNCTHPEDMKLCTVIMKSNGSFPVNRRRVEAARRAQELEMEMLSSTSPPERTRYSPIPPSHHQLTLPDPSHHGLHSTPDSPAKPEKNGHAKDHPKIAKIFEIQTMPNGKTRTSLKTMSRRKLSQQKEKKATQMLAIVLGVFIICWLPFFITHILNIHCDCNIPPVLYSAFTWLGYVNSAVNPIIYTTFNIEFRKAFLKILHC

Turning to `O=C(NCCCCN1CCN(c2cccc(Cl)c2Cl)CC1)c1cc2ccccc2[nH]1`, the outcome in assay [1] was Active.

With `Clc1cccc(N2CCNCC2)c1Cl`, the values for the Emax in assay [2] and in assay [3] were 40.4% and 57.3%, respectively.

For the compound `COc1ccccc1N1CCNCC1`, the Emax – broadly, the maximal effect, on the per cent scale that the assay sets – in assay [2] came out at 14%.

`COc1ccccc1N1CCN(CCCCNC(=O)c2cc3ccccc3[nH]2)CC1`: the maximal effect (Emax) in assay [2] and in assay [3] was 8% in each case. Also, the outcome in assay [1] and in assay [4] was Active.

The values are drawn from ChEMBL document CHEMBL2163217, “A straightforward approach for engineering efficacy and selectivity at GPCRs” (J Med Chem, 2012).
